Assay results from ChEMBL document CHEMBL4196094, “Structure-based design of bacterial transglycosylase inhibitors incorporating biphenyl, amine linker and 2-alkoxy-3-phosphorylpropanoate moieties” (Eur J Med Chem, 2018).
In brackets after ≈: the same amount, converted by molar mass.

Columns and labels:
[1] = molecular target: T1, Penicillin-binding protein 1B (Acinetobacter baumannii) (UniProt G1C7A4); experiment: Inhibition of Acinetobacter baumannii PBP1b transglycosylase activity at 200 uM using NBD-lipid 2 as substrate after 2 hrs by muramidase enzyme coupled HPLC analysis relative to control
T1 sequence (whole entry): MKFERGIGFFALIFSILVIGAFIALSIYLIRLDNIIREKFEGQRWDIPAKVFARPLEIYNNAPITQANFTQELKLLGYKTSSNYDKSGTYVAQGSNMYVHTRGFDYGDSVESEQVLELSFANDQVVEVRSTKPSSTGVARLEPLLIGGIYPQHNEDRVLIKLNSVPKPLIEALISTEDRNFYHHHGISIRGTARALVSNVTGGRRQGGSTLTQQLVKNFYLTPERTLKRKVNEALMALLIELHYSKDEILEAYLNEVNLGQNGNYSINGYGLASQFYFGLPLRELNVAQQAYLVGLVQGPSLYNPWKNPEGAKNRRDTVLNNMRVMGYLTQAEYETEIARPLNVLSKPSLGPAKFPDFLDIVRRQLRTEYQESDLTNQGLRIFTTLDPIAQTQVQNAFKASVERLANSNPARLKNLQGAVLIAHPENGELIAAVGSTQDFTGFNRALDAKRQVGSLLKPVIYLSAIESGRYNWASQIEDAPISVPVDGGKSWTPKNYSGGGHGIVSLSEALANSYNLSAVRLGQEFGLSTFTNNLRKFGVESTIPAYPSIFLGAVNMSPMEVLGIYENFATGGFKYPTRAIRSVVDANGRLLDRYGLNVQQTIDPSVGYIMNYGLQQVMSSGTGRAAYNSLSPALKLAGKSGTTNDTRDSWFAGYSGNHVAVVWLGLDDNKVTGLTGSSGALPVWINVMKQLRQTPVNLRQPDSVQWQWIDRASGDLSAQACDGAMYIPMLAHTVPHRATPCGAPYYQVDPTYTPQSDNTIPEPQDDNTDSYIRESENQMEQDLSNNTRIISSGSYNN

[2] = molecular target: T1, Penicillin-binding protein 1B (Acinetobacter baumannii); experiment: Inhibition of Acinetobacter baumannii PBP1b transglycosylase activity at 500 uM using NBD-lipid 2 as substrate after 2 hrs by muramidase enzyme coupled HPLC analysis relative to control
[3] = molecular target: T2, Penicillin-binding protein 1B (Acinetobacter baumannii, UniProt G1C7A4); experiment: Inhibition of Acinetobacter baumannii PBP1b transglycosylase activity using NBD-lipid 2 as substrate after 2 hrs by muramidase enzyme coupled HPLC analysis
T2 sequence (G1C7A4 whole entry): T1 sequence (whole entry)

[4] = test system: Staphylococcus aureus; experiment: Antibacterial activity against Staphylococcus aureus after 16 to 18 hrs; assay type: functional
[5] = molecular target: T1, Penicillin-binding protein 1B (Acinetobacter baumannii); experiment: Inhibition of Acinetobacter baumannii PBP1b transglycosylase activity at 1 uM using NBD-lipid 2 as substrate after 2 hrs by muramidase enzyme coupled HPLC analysis relative to control

CCCCCCCCCCCCn1cc(CO[C@H](CP(=O)(O)OCCCNCc2ccc(-c3ccccc3)cc2)C(=O)OCC)nn1
inhibition [1]: 34%
inhibition [2]: 90%
IC50 [3]: 232 µM
MIC95 [4]: 6.3 µM (≈ 4.23 µg/mL)

CCCCCCCCCCCCn1cc(CO[C@H](CP(=O)(O)OCCCN(Cc2ccc(-c3ccccc3)cc2)C(=O)OC(C)(C)C)C(=O)OCC)nn1
inhibition [2]: 33%

CCCCCCCCCCCCn1cc(CO[C@H](CP(=O)(O)OCCCN(C)Cc2ccc(-c3ccccc3)cc2)C(=O)OCC)nn1
inhibition [1]: 99%
IC50 [3]: 153 µM
MIC95 [4]: 6.3 µM (≈ 4.31 µg/mL)

CC1(C)S[C@@H]2[C@H](NC(=O)[C@H](N)c3ccccc3)C(=O)N2[C@H]1C(=O)O [AMPICILLIN]
MIC95 [4]: 1.4 µM (≈ 0.489 µg/mL)

CCCCCCCCCCCCn1cc(CO[C@H](CP(=O)(O)OCCCNC(=O)c2ccc(-c3ccccc3)cc2)C(=O)OCC)nn1
inhibition [2]: < 5%

CCCCCCCCCCCCn1cc(CO[C@H](CP(=O)(O)OCCNCc2ccc(-c3ccccc3)cc2)C(=O)OCC)nn1
inhibition [1]: 99%
IC50 [3]: 157 µM
MIC95 [4]: 6.3 µM (≈ 4.14 µg/mL)

C=C(C/C=C(\C)CCC=C(C)C)CCC(C)(C)/C=C/CC/C(C)=C\CO[C@H](COP(=O)(O)O[C@H]1O[C@H](C(N)=O)[C@@](C)(O)[C@H](OC(N)=O)[C@H]1O[C@@H]1O[C@H](CO[C@@H]2O[C@H](CO)[C@@H](O)[C@H](O)[C@H]2O)[C@@H](O[C@@H]2O[C@H](C)[C@@H](O[C@@H]3O[C@H](C(=O)NC4=C(O)CCC4=O)[C@H](O)[C@H](O)[C@H]3O)[C@H](O)[C@H]2NC(C)=O)[C@H](O)[C@H]1NC(C)=O)C(=O)O
inhibition [5]: 100%

CCCCCCCCCCCCn1cc(CO[C@H](CP(=O)(O)OCCCNCc2ccc(-c3ccccc3)cc2)C(=O)O)nn1
inhibition [2]: 13%

CCCCCCCCCCCCn1cc(CO[C@H](CP(=O)(O)OCCCN(Cc2ccc(-c3ccccc3)cc2)C(=O)OCC(Cl)(Cl)Cl)C(=O)O)nn1
inhibition [2]: < 5%

CCCCCCCCCCCCn1cc(CO[C@H](CP(=O)(O)OCCCNC(=O)c2ccc(-c3ccccc3)cc2)C(=O)O)nn1
inhibition [2]: < 5%

CCCCCCCCCCCCn1cc(CO[C@H](CP(=O)(O)OCCCN(Cc2ccc(-c3ccccc3)cc2)C(=O)OCC(Cl)(Cl)Cl)C(=O)OCC)nn1
inhibition [2]: 70%

CCCCCCCCCCCCn1cc(CO[C@H](CP(=O)(O)OCCCNCc2ccc3ccccc3c2)C(=O)OCC)nn1
inhibition [2]: 55%
MIC95 [4]: 6.3 µM (≈ 4.06 µg/mL)

CCCCCCCCCCCCn1cc(CO[C@H](CP(=O)(O)OCCCNCc2ccc3ccccc3c2)C(=O)O)nn1
inhibition [2]: 48%

CCCCCCCCCCCCn1cc(CO[C@H](CP(=O)(O)OCCCN(Cc2ccc(-c3ccccc3)cc2)Cc2ccc(-c3ccccc3)cc2)C(=O)OCC)nn1
inhibition [1]: 99%
IC50 [3]: 87 µM
MIC95 [4]: > 400 µM
